Measured values as given in patent EP2794556B1, “BIS-(ARYL/HETEROARYL)-METHYLENE COMPOUNDS, PHARMACEUTICAL COMPOSITIONS CONTAINING SAME AND THEIR USE FOR TREATING CANCER” (Gleason, James L., priority 2011, dated 2013).

Tests used:
[1] = target: T1, VDR (Homo sapiens, UniProt P11473); assay: VDR agonism by induction of CYP24 gene expression (RT/PCR); assay type: cell-based
T1 construct: endogenous in cells; host or cells: SCC25 human head and neck squamous carcinoma cells
T1 sequence (P11473 1-427): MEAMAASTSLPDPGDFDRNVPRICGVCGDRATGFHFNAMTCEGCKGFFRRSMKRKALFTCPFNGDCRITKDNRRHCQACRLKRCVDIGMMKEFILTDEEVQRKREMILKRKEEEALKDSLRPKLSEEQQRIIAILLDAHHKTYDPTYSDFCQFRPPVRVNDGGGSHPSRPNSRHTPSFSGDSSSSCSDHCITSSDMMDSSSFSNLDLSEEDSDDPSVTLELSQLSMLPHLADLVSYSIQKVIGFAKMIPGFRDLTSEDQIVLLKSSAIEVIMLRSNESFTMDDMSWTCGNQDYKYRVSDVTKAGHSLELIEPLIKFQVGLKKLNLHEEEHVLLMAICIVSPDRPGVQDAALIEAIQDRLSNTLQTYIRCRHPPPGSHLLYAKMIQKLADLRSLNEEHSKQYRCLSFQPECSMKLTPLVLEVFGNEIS
Procedure: Cell culture. Human head and neck squamous carcinoma cell lines SCC4 and SCC45 and mouse HNSCC line AT84 were purchased from American Type Culture Collection (Manassas, VA) and cultured under recommended conditions. Cells were split at 60-70% confluence, as follows: cells were washed with filtered PBS, split with a 5-10 min incubation with 1 ml Trypsin-EDTA (Invitrogen, Carlsbad, CA) in PBS, collected with medium. Following centrifugation, the supernatant was removed. Cell pellets were resuspended with DMEM-F12, and distributed on fresh media-containing dishes. For treatments, AT84 cells were split and 24h later medium was changed to DMEM + 10% charcoal-stripped FBS.
RNA isolation and RT/PCR analysis. […]. Proc. Nat. Acad. Sci. U.S.A. 105, 8250-55. and Lamblin, M.et al Bioorganic & Medicinal Chemistry (2010) 18:4119-4137. After treatment, cells were washed with PBS, homogenized with 1ml TRIzol Reagent (Invitrogen, Carlsbad, CA), kept at room temperature for 2-5 min, collected and kept at -80 °C for at least 1h. After, thawing 0.2 ml chloroform was added. After vigorous mixing and storing for 10min, mixtures were centrifuged (10,000rpm, 15 min, 4 °C) and the upper transparent layer was transferred to a new tube. 0.5 ml isopropanol was added and the new solution was mixed. After centrifuging at 4 °C, the supernatant was discarded and 1ml of 75% ethanol was added. After centrifuging and discarding the supernatant, the pellet was air-dried for 5-10 min, and then dissolved in ddH2O. RNA concentrations were measured using a spectrophotometer, and 1-3µg of RNA were loaded for reverse transcriptase reactions (total volume: 20 µl). 80µl of ddH2O was added to the RT-product, and 1.5µl of that was used as template for the PCR reaction. Reverse transcriptase (Super Script II) was purchased from Invitrogen (Carlsbad, CA). DNA polymerase and dNTP's were ordered from Fermentas (Glen Burnie, MD).
Test compounds (10 µM) were first screened for VDR agonism by analysis of induction of CYP24 gene expression in 1,25D-sensitive human SCC25 cells. […]. Consistent with binding to the VDR, induction of CYP24 by compound JF-B01, compound JF-B53 or compound 16 (JF-B54) was blocked (Fig. 1c). […]

[2] = tested on: SCC4 cells; assay: MTS cell proliferation assay; assay type: cell-based, human; settings: vitamin D resistant SCC4 cells, Figures 7c, 8 and 9
Source text: Dose-dependent effects of compounds on cell cycle progression was monitored using a CellTiter 96 Aqueous Non-Radioactive Cell Proliferation Assay Kit (Promega). The assay composed of solutions of a novel tetrazolium compound (MTS) and an electron coupling reagent (phenazine methosulfate; PMS). MTS is reduced by metabolically active cells into a soluble formazan product that absorbs at 490nm. The quantity of formazan product absorbing at 490nm is directly proportional to the number of living cells.

[3] = tested on: CCRF-CEM; assay: NCI 60 cell panel
[4] = tested on: MOLT-4; assay: NCI 60 cell panel
[5] = tested on: EKVX; assay: NCI 60 cell panel
[6] = tested on: COLO 205; assay: NCI 60 cell panel
[7] = tested on: LOX IMVI; assay: NCI 60 cell panel
[8] = tested on: SK-MEL-5; assay: NCI 60 cell panel
[9] = tested on: OVCAR-3; assay: NCI 60 cell panel
[10] = tested on: OVCAR-5; assay: NCI 60 cell panel
[11] = tested on: NCI/ADR-RES; assay: NCI 60 cell panel
[12] = tested on: SK-OV-3; assay: NCI 60 cell panel
[13] = tested on: CAKI-1; assay: NCI 60 cell panel
[14] = tested on: UO-31; assay: NCI 60 cell panel
[15] = tested on: MDA-MB-231/ATCC; assay: NCI 60 cell panel

SMILES: CCC(CC)(c1ccc(OCC(=O)NO)c(C)c1)c1ccc(OCC(O)C(C)(C)C)c(C)c1 (racemic) [JF-B01, N-Hydroxy-2-(4-(3-(4-(2-hydroxy-3,3-dimethylbutoxy)-3-methylphenyl)pentan-3-yl)-2-methylphenoxy)acetamide]
- induction of CYP24 by the compound was blocked ([1]; Fig. 1c, blocking agent not given): blocked
- VDR agonist potency compared with that of LG190178 ([1]; SCC25 cells, Fig. 1b): equal to or greater
- VDR agonist potency, fold lower than that of 1,25D ([1]; SCC25 cells, Fig. 1b): approximately 10 fold
- VDR agonist activity and potency, induction of CYP24 gene expression ([1]; SCC25 cells, Fig. 1b, 1d): efficacious agonist
- VDR agonism by induction of CYP24 gene expression ([1]; screen at 10 µM, SCC25 cells, Fig. 1a): agonist activity
- antiproliferative potency [2]: low micromolar potency
- GI50 ([3]; Homo sapiens): 0.576 µM
- CC50 ([3]; Homo sapiens, read-out: LC50): 42.2 µM
- TGI ([3]; Leukemia): 4.80E-6
- GI50 ([4]; Homo sapiens, MOLT-4): 1.15 µM
- CC50 ([4]; Homo sapiens, MOLT-4, read-out: LC50): 40.9 µM
- TGI ([4]; Leukemia, MOLT-4): 4.60E-6
- GI50 ([5]; Homo sapiens): 2.87 µM
- CC50 ([5]; Homo sapiens, read-out: LC50): 35.3 µM
- TGI ([5]; Non-Small Cell Lung Cancer): 1.24E-5
- TGI ([6]; Colon Cancer, COLO 205): 5.94E-6
- GI50 ([6]; Homo sapiens, COLO 205): 2.33 µM
- CC50 ([6]; Homo sapiens, COLO 205, read-out: LC50): 20.3 µM
- GI50 ([7]; Homo sapiens): 0.183 µM
- CC50 ([7]; Homo sapiens, read-out: LC50): 0.602 µM
- TGI ([7]; Melanoma): 3.32E-7
- GI50 ([8]; Homo sapiens, SK-MEL-5): 1.39 µM
- CC50 ([8]; Homo sapiens, SK-MEL-5, read-out: LC50): 5.58 µM
- TGI ([8]; Melanoma, SK-MEL-5): 2.79E-6
- GI50 ([9]; Homo sapiens, OVCAR-3): 1.73 µM
- CC50 ([9]; Homo sapiens, OVCAR-3, read-out: LC50): 21.6 µM
- TGI ([9]; Ovarian Cancer, OVCAR-3): 5.59E-6
- GI50 ([10]; Homo sapiens, OVCAR-5): 12.9 µM
- CC50 ([10]; Homo sapiens, OVCAR-5, read-out: LC50): 50.6 µM
- TGI ([10]; Ovarian Cancer, OVCAR-5): 2.56E-5
- GI50 ([11]; Homo sapiens): 4.39 µM
- CC50 ([11]; Homo sapiens, read-out: LC50): 41.9 µM
- TGI ([11]; Ovarian Cancer): 1.67E-5
- GI50 ([12]; Homo sapiens, SK-OV-3): 12.2 µM
- CC50 ([12]; Homo sapiens, SK-OV-3, read-out: LC50): 49.6 µM
- TGI ([12]; Ovarian Cancer, SK-OV-3): 2.46E-5
- GI50 ([13]; Homo sapiens, CAKI-1): 4.98 µM
- CC50 ([13]; Homo sapiens, CAKI-1, read-out: LC50): 41.3 µM
- TGI ([13]; Renal Cancer, CAKI-1): 1.71E-5
- GI50 ([14]; Homo sapiens, UO-31): 1.92 µM
- CC50 ([14]; Homo sapiens, UO-31, read-out: LC50): 26.2 µM
- TGI ([14]; Renal Cancer, UO-31): 6.95E-6
- TGI ([15]; Breast Cancer, MDA-MB-231/ATCC): 8.45E-6
- GI50 ([15]; Homo sapiens, MDA-MB-231): 2.18 µM
- CC50 ([15]; Homo sapiens, MDA-MB-231, read-out: LC50): 31.6 µM
